Results taken from EP3958980B1, “TARGETED NOVEL TRIAZOLOTHIADIAZINE DERIVATIVES FOR THE TREATMENT OF LUNG CANCER” (Anadolu Universitesi, priority 2020, dated 2021).
Converted amounts (≈) assume the structure as drawn. “And” between values parts separate entries of the source, which are not always exact repeats. Equal values may be shown once.

Test system: ROCK
Test: ROCK activity assay on lysates of treated A549 cells
Format: cell-based, human
Settings: for ROCK Inhibition% / ROCK inhibition (in words): 24 hours; for ROCK Inhibition%: IC50 concentration (9: 5.75; 11: 0.73; 12: 0.80; 14: 2.63; Cisplatin: 23.00 µg/mL); for ROCK inhibition (in words): IC50 and IC50/2 concentrations
Experimental: The intracellular COX, Akt and ROCK inhibitory effects of the active compounds determined with the MTT assay, were measured with the colorimetric assay according to the manufacturer's recommendations.
Two wells were used for each sample. 90 µL active ROCK-II positive control and samples were added to the wells of the substrate plate. 10 X kinase solution comprising DTT and ATP was added to 10 µL wells and the kinase reaction was started and the plate was incubated at 30 °C for 30-60 minutes. 50 µL 0.5 M EDTA was added to each well at pH=8.0 and the reaction was stopped. The wells were emptied and they were washed 3 times with 250 µL 1X washing solution. After the final washing, 100 µL anti-phospho-MYPT1 (Thr696) antibody was added. The plate was closed and it was incubated at room temperature for 1 hour on an orbital shaker. After the wells were washed three times again, 100 µL HRP-conjugated secondary antibody was added and it was incubated again at room temperature for 1 hour on an orbital shaker. After the wells were emptied, they were washed 3 times. Then 100 µL of substrate solution was added. It was incubated at room temperature for 5-20 minutes on an orbital shaker. 100 µL of stop solution was added. The absorbance of each well was read at a wavelength of 450 nm in a spectrophotometric microplate reader.

Row | SMILES | ROCK Inhibition% | ROCK Inhibition% (listed as cisplatin) [%] | ROCK inhibition (in words) | IC50 (ROCK inhibition) (24 hours incubation) [µg/mL]
1 | N.N.[Cl][Pt][Cl] [Cisplatin, reference compound] | 29.84±0.16% | 29.84 |  | 
2 | CS(=O)(=O)c1ccc(C2=Nn3c(CCc4ccc5c(c4)OCO5)nnc3SC2)cc1 [Compound 9] | 6.89±0.44% |  | did not exhibit significant ROCK inhibition | 
3 | FC(F)(F)c1ccc(C2=Nn3c(CCc4ccc5c(c4)OCO5)nnc3SC2)cc1 [Compound 11, 3-[2-(1,3-Benzodioxole-5-yl)ethyl]-6-(4-trifluoromethylphenyl)-7H-[1,2,4]triazolo [3,4-b][1,3,4]thiadiazine] |  |  | did not exhibit significant ROCK inhibition | 
4 | Fc1cccc(C2=Nn3c(CCc4ccc5c(c4)OCO5)nnc3SC2)c1 [Compound 12, 3-[2-(1,3-Benzodioxole-5-yl)ethyl]-6-(3-fluorophenyl)-7H-[1,2,4]triazolo [3,4-b] [1,3,4]thiadiazine] |  |  | did not exhibit significant ROCK inhibition | 
5 | c1ccc(-c2ccc(C3=Nn4c(CCc5ccc6c(c5)OCO6)nnc4SC3)cc2)cc1 [Compound 14, 3-[2-(1,3-Benzodioxole-5-yl)ethyl]-6-(biphenyl-4-yl)-7H-[1,2,4]triazolo[3,4-b] [1,3,4]thiadiazine] | 53.85% and 53.85±8.85% |  |  | 2.55 ± 0.21 (≈ 5.79 µM)
